Results taken from US7595327B2, “Beta-sulfonamide hydroxamic acid inhibitors of tace/matrix metalloproteinase” (priority 2005, dated 2009).
pIC50: −log10 of the molar value.

Tests used:
[1] = test system: TNF-α secretion in Raw 264.7 cells; test: Cell-based assay for inhibition of TNF-α secretion in Raw cells; conditions: Mus musculus, RAW264.7, LPS 100 ng/ml, 4 hr
Experimental: The basic measurement of the assay is the percentage of inhibition of TNF-α secretion and the IC50 determination by a fitting with the model-39 of LSW data analysis tool. […] Cells are split twice a week by scraping and 1 to 10 or 20 dilutions. For testing compounds, cells are cultured to confluence and are seeded the day before the experiment in 24 well culture dishes at 0.5 to 1 million/ml well. On the next morning, the medium from the overnight culture is replaced with the fresh growth medium. The compounds are added at various concentration at the 0.2% of final DMSO concentrations (10 μl of a 20% DMSO solution containing testing compounds is added to each well). The cells are pre-incubated with compounds for 1 hr. LPS (Sigma, L2262) is added to cells at a final concentration of 100 ng/ml (10 μl of a […] LPS solution freshly diluted from a 1 mg/ml LPS stock solution in PBS is added to each well) and cells are further incubated for 4 hr at 37° C. 1 ml of the supernatant was collected, cells are spun down and the supernatants are frozen at −80° C. until use. The TNF-α and other proinflammatory cytokines were detected by an ELISA assay according to the manufacturer's instructions (Biosource International, Inc., Camarillo, Calif. (For IL-1b measurement in Raw cells, one round of freeze and thaw of the cells was required).

[2] = test system: LPS-induced TNF-α secretion in human whole blood; test: Human whole blood assay for LPS-induced TNF-α secretion; assay type: cell-based; conditions: Homo sapiens, LPS 100 ng/ml, read-out: TNF Secretion HWB IC50
Experimental: procedure is essentially as described in Newton, R. C., et al., (2001) Ann Rheum […]32, incorporated by reference herein in its entirety. The basic measurement of the assay is the percentage of inhibition of TNF-α secretion and the IC50 determination by a […] model-39 of LSW data analysis tool. 350 μl of fresh human blood drawn from healthy volunteers were pre-incubated with compounds for one hour at the various concentrations at 37° C. with turning generally, the final DMSO concentrations should be kept below 0.2%. At the end of cubation, LPS (Sigma, L2262) was added to the blood at 100 ng/ml and the samples were further incubated for 4 hours or overnight at 37° C. with constant rotation. At the end of the incubation period, 650 μl of serum-free medium was added to the blood samples and the samples were centrifuged at 1500 rpm for 15 minutes. 500 μl of supernate was collected and frozen at -80° C. The TNF-α and other proinflammatory cytokines were detected by ELISA assay according to the manufacturer's instruction (Biosource International, Inc., Camarillo, Calif.).

recombinant human MMP-2 = target: T1, recombinant human MMP-2 (Homo sapiens, UniProt P08253); test: In-vitro fluorescence assay of MMP-2 activity; assay type: biochemical
T1 sequence (P08253 110-660): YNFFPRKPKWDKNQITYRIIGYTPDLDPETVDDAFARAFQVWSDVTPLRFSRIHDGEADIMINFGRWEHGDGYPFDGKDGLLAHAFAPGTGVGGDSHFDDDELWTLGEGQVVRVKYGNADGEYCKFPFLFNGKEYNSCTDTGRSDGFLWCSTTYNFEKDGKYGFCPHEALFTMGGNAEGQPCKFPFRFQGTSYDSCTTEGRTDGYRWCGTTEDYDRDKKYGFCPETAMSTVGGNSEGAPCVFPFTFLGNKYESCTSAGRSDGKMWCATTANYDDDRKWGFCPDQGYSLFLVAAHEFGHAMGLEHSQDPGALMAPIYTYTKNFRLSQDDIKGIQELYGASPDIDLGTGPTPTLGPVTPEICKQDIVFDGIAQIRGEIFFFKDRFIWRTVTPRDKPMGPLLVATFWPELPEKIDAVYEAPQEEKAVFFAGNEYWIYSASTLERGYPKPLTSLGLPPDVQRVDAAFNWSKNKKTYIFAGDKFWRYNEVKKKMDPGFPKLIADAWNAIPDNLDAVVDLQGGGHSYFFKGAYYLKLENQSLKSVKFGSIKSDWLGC

MMP-13 = MMP-13 (Homo sapiens, UniProt P45452); test: In-vitro fluorescence assay of MMP-13 activity; assay type: biochemical
Experimental: See Knight, C. […] […].
The method was essentially the same as for the determination of MMP-1 activity, described above, except that the final concentration of purified MMP in the assay was 0.5 nM, prepared by diluting with the assay buffer.

[3] = target: T2, TACE (catalytic domain of the recombinant TACE protein) (Homo sapiens, UniProt P78536); test: TACE FRET assay using TACE Cat; assay type: biochemical; conditions: FRET, pro-TNF-α substrate peptide; read-out: TACE IC50
T2 construct: The catalytic domain of the recombinant TACE protein was expressed and purified; made in house
T2 sequence (P78536 223-474 limits assumed): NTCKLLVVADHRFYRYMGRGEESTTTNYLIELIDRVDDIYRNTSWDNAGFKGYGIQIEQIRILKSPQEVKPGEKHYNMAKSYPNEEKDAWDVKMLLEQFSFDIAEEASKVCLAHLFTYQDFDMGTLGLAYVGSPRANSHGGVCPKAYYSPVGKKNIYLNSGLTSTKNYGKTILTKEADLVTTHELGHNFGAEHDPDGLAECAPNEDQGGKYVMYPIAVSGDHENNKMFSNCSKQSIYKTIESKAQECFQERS
Experimental: The procedure is essentially as described in Jin, G. et al., Analytical Biochemistry (2002) 302, 269-275, incorporated by reference herein in its entirety. […] K is the IC50. Generally, n and B are floated, noting that n (hill slope) should be close to 1 and B (background offset) to 0.
Pro-TNF-α substrate peptide Abz-[…]-Dpa (AnaSpec, San Jose, Calif., WARC-1) was prepared as a 2 mM stock solution in the TACE assay buffer (50 mM Tris-HCI, pH 7.4, 25 mM NaCl, 4% Glycerol, 0.005% Brij 35). The catalytic domain of the recombinant TACE protein was expressed and purified. The TACE protein (1 ug/ml) was pretreated with the inhibitors at various concentrations for 10 min at room temperature. The reaction was initiated by the addition of the substrate peptide. The increase in fluorescence was monitored at an Excitation of 320 nm and an Emission of 420 nm over a period of 10 min. The initial rate (slope) of the reaction was determined using a fluorescence plate reader (Molecular Devices, Spectra Max Gemini XS).

Row | Structure (SMILES) | pIC50 [1] | pIC50 [2] | pIC50 (recombinant human MMP-2) | pIC50 (MMP-13) | pIC50 [3]
1 | Cc1cc(COc2ccc(S(=O)(=O)N[C@@H]3CCOCC3C(=O)NO)cc2)c2ccccc2n1 (stereo in doubt) [Example 24, (3S,4R)-4-[4-(2-Methyl-quinolin-4-ylmethoxy)-benzenesulfonylamino]-tetrahydro-pyran-3-carboxylic acid hydroxyamide] | 7.77 | 6.64 | < 4.78 | < 4.78 | 9.10
2 | Cc1cc(COc2ccc(S(=O)(=O)N[C@H]3CCN(C(=O)NC(C)(C)C)C[C@H]3C(=O)NO)cc2)c2ccccc2n1 [Example 30, (3S,4R)-4-[4-(2-Methyl-quinolin-4-ylmethoxy)-benzenesulfonylamino]-piperidine-1,3-dicarboxylic acid 1-tert-butylamide 3-hydroxyamide] | 7.52 | 6.60 | < 5.00 | 5.04 | > 9.22
3 | CC(=O)N1CCC(NS(=O)(=O)c2ccc(OCc3cc(C)nc4ccccc34)cc2)C(C(=O)NO)C1 (mixture of isomers) [Example 31, 1-Acetyl-4-[4-(2-methyl-quinolin-4-ylmethoxy)-benzenesulfonylamino]-piperidine-3-carboxylic acid hydroxyamide] | 7.70 | 7.30 | < 5.00 | 5.18 | 9.05
4 | Cc1cc(COc2ccc(S(=O)(=O)N(C)[C@@H]3CC=CC[C@@H]3C(=O)NO)cc2)c2ccccc2n1 (relative stereo) [Example 15, cis-N-Hydroxy-6-[methyl({4-[(2-methylquinolin-4-yl)methoxy]phenyl}sulfonyl)amino]cyclohex-3-ene-1-carboxamide] | < 6.00 | < 4.30 | < 4.78 | < 4.78 | 8.59
5 | CC[C@]1(C(=O)NO)CCC[C@H]1N(C)S(=O)(=O)c1ccc(OCc2cc(C)nc3ccccc23)cc1 [Example 57, (1S,2R)-N-hydroxy-1-ethyl-2-[methyl({4-[(2-methylquinolin-4-yl)methoxy]phenyl}sulfonyl)amino]cyclopentanecarboxamide] | < 6.00 | < 4.30 | < 5.00 | < 5.00 | 8.02
6 | Cc1cc(COc2ccc(S(=O)(=O)N[C@@H]3CCN(C=O)C[C@@H]3C(=O)NO)cc2)c2ccccc2n1 [Example 29, (3S,4R)-1-Formyl-4-[4-(2-methyl-quinolin-4-ylmethoxy)-benzenesulfonylamino]-piperidine-3-carboxylic acid hydroxyamide] | 8.15 | 7.07 | < 4.78 | 4.88 | 9.10
7 | Cc1cc(COc2ccc(S(=O)(=O)N[C@@H]3CCN(C(C)C)C[C@]3(C)C(=O)NO)cc2)c2ccccc2n1 [Example 48, (3S,4R)-N-hydroxy-1-isopropyl-3-methyl-4-[({4-[(2-methylquinolin-4-yl)methoxy]phenyl}sulfonyl)amino]piperidine-3-carboxamide] | < 6.00 | < 4.30 | < 4.78 | < 4.78 | 6.68
8 | Cc1cc(COc2ccc(S(=O)(=O)N[C@@H]3CCN(C(=O)OC(C)(C)C)CC3C(=O)NO)cc2)c2ccccc2n1 (mixture of isomers) [Example 28, tert-Butyl (3S,4R)-3-[(hydroxyamino)carbonyl]-4-[({4-[(2-methylquinolin-4-yl)methoxy]phenyl}sulfonyl)amino]piperidine-1-carboxylate] | 6.34 | 6.10 | < 4.78 | 4.84 | 9.30
9 | Cc1cc(COc2ccc(S(=O)(=O)N(C)[C@@H]3CCC[C@@H]3C(=O)NO)cc2)c2ccccc2n1 (relative stereo) [Example 16, cis-N-Hydroxy-2-[methyl({4-[(2-methylquinolin-4-yl)methoxy]phenyl}sulfonyl)amino]cyclopentanecarboxamide] | 7.03 | 5.32 | 5.01 | 4.86 | > 9.22
10 | Cc1cc(COc2ccc(S(=O)(=O)N[C@@H]3CCNC[C@]3(O)C(=O)NO)cc2)c2ccccc2n1 [Example 59, (3R,4R)-N,3-dihydroxy-4-[({4-[(2-methylquinolin-4-yl)methoxy]phenyl}sulfonyl)amino]piperidine-3-carboxamide] | < 6.00 | 4.31 | < 5.00 | < 5.00 | 6.96
11 | C#CCN1CC[C@@H](NS(=O)(=O)c2ccc(OCc3cc(C)nc4ccccc34)cc2)[C@@](C)(C(=O)NO)C1 [Example 49, (3S,4R)-N-hydroxy-3-methyl-4-[({4-[(2-methylquinolin-4-yl)methoxy]phenyl}sulfonyl)amino]-1-prop-2-yn-1-ylpiperidine-3-carboxamide] | < 6.00 | < 4.30 | < 4.78 | < 4.78 | 7.72
12 | CNC(=O)N1CC[C@@H](NS(=O)(=O)c2ccc(OCc3cc(C)nc4ccccc34)cc2)[C@@](C)(C(=O)NO)C1 [Example 50] | < 6.00 | 4.66 | < 4.78 | < 4.78 | 8.43
13 | CC(=O)N1C[C@H](C(=O)NO)[C@H](NS(=O)(=O)c2ccc(OCc3cc(C)nc4ccccc34)cc2)C1 (relative stereo) [Example 19, cis-1-acetyl-N-Hydroxy-4-[({4-[(2-methylquinolin-4-yl)methoxy]phenyl}sulfonyl)amino]pyrrolidine-3-carboxamide] | 7.70 | 6.70 | < 5.00 | ≤ 5.00 | > 9.22
14 | Cc1cc(COc2ccc(S(=O)(=O)N[C@@H]3CCC[C@]3(O)C(=O)NO)cc2)c2ccccc2n1 [Example 53, (1R,2R)-N,1-dihydroxy-2-[({4-[(2-methylquinolin-4-yl)methoxy]phenyl}sulfonyl)amino]cyclopentanecarboxamide] | 7.09 | 5.44 | < 4.78 | < 4.78 | 9.40
